This passage reports IC50, inhibition in vivo and viability results from ChEMBL document CHEMBL6071146, “Synthesis and identification of a selective FGFR2 degrader with potent antiproliferative effects in gastric cancer” (Eur J Med Chem, 2024).

Assay [1] deals with SNU-16. Description: Antiproliferative activity against human SNU-16 cells incubated for 72 hrs by MTT assay. Conditions: SNU-16, 72 h. (Formazan colour is commonly taken as a measure of viable cells.)
The nature of assay [2]: Antiproliferative activity against human KATO III cells incubated for 72 hrs by MTT assay.
Assay [3] relates to SNU-16. Description: Antitumor activity against human SNU-16 cells xenografted in BALB/c mouse at 20 mg/kg, ip qd for 25 days relative to control. Particulars: SNU-16, 600 h, read-out: TGI. For orientation: In xenograft studies the graft and the host belong to different species.
The test system of assay [4] is SNU-16. Description: cells. Particulars: Homo sapiens, SNU-16, 24 h, read-out: Activity.
Description: Induction of apoptosis in human SNU-16 cells assessed as viable cells at 1000 nM incubated for 24 hrs by Annexin V-FITC/PI staining based flow cytometry (Rvb = 77.12 %)
Assay [5] is described as follows: cells. Particulars: Homo sapiens, KATO III, 24 h, read-out: Activity.
Description: Induction of apoptosis in human KATO III cells assessed as viable cells at 1000 nM incubated for 24 hrs by Annexin V-FITC/PI staining based flow cytometry (Rvb = 87.00 %)
Assay [6] is described as follows: cells. Particulars: Homo sapiens, KATO III, 24 h, read-out: Activity. The source holds these as a separate data set.
Description: Induction of apoptosis in human KATO III cells assessed as viable cells at 500 nM incubated for 24 hrs by Annexin V-FITC/PI staining based flow cytometry (Rvb = 87.00 %)
The test system of assay [7] is SNU-16. Description: cells. Conditions: Homo sapiens, SNU-16, 24 h, read-out: Activity. The source holds these as a separate data set.
Description: Induction of apoptosis in human SNU-16 cells assessed as viable cells at 500 nM incubated for 24 hrs by Annexin V-FITC/PI staining based flow cytometry (Rvb = 77.12 %)

The term IC50 denotes the concentration that gives 50% inhibition. Read a high IC50 as lower potency.

The structures appear in SMILES notation.

With `COc1cc(OC)cc(N(CCNC(C)C)c2ccc3ncc(-c4cnn(CCCCCCCC(=O)NCCNc5cccc6c5C(=O)N(C5CCC(=O)NC5=O)C6=O)c4)nc3c2)c1` (centres undefined), the IC50 (in the assay with SNU-16 [1]; in assay [2]) was below 0.17 nM each time.
`COc1cc(OC)cc(N(CCNC(C)C)c2ccc3ncc(-c4cnn(CCCC(=O)NCC(=O)NCCNc5cccc6c5C(=O)N(C5CCC(=O)NC5=O)C6=O)c4)nc3c2)c1` (centres undefined): the IC50 was found to be 22 nM in the assay on SNU-16 [1] and 2 nM in assay [2].
For `COc1cc(OC)cc(N(CCNC(C)C)c2ccc3ncc(-c4cnn(CCCCCCCCC(=O)NCCNc5cccc6c5C(=O)N(C5CCC(=O)NC5=O)C6=O)c4)nc3c2)c1` (centres undefined), in that order: below 0.17 nM and below 0.17 nM.
For `COc1cc(OC)cc(N(CCNC(C)C)c2ccc3ncc(-c4cnn(CCCCCC(=O)NCCNc5cccc6c5C(=O)N(C5CCC(=O)NC5=O)C6=O)c4)nc3c2)c1` (centres undefined), the figures for the half-maximal inhibitory concentration (IC50) (in the assay with SNU-16 [1]; in assay [2]) were 1 nM and 51 nM, respectively.
Turning to `COc1cc(OC)cc(N(CCNC(C)C)c2ccc3ncc(-c4cnn(CCOCCOCCOCC(=O)NCCNc5cccc6c5C(=O)N(C5CCC(=O)NC5=O)C6=O)c4)nc3c2)c1` (centres undefined), the IC50 in the assay with SNU-16 [1] turned out to be 1 nM; in assay [2] it was 140 nM.
For `COc1cc(OC)cc(N(CCNC(C)C)c2ccc3ncc(-c4cnn(CCCC(=O)NCCNc5cccc6c5C(=O)N(C5CCC(=O)NC5=O)C6=O)c4)nc3c2)c1` (centres undefined), in that order: 234 nM and 172 nM.
For `COc1cc(OC)cc(N(CCNC(C)C)c2ccc3ncc(-c4cnn(CC(=O)NCCNc5cccc6c5C(=O)N(C5CCC(=O)NC5=O)C6=O)c4)nc3c2)c1` (centres undefined), in that order: 48 nM and 463 nM.
For `COc1cc(OC)cc(N(CCNC(C)C)c2ccc3ncc(-c4cnn(CCOCCOCC(=O)NCCNc5cccc6c5C(=O)N(C5CCC(=O)NC5=O)C6=O)c4)nc3c2)c1` (centres undefined), in that order: 1 nM and 208 nM.
Take `COc1cc(OC)cc(N(CCNC(C)C)c2ccc3ncc(-c4cnn(CCCCCC(=O)NCC(=O)NCCNc5cccc6c5C(=O)N(C5CCC(=O)NC5=O)C6=O)c4)nc3c2)c1` (centres undefined): the IC50 with SNU-16 [1] amounted to 1 nM; in assay [2], 595 nM.
As to `COc1cc(OC)cc(N(CCNC(C)C)c2ccc3ncc(-c4cnn(CCOCC(=O)NCCNc5cccc6c5C(=O)N(C5CCC(=O)NC5=O)C6=O)c4)nc3c2)c1` (centres undefined), the IC50 in the assay on SNU-16 [1] was found to be 23 nM; in assay [2], 388 nM.
For `COc1cc(OC)cc(N(CCNC(C)C)c2ccc3ncc(-c4cnn(CCC(=O)NCCNc5cccc6c5C(=O)N(C5CCC(=O)NC5=O)C6=O)c4)nc3c2)c1` (centres undefined), in that order: 153 nM and 701 nM.
The corresponding values for `COc1cc(OC)cc(N(CCNC(C)C)c2ccc3ncc(-c4cnn(CCCCCCC(=O)NCC(=O)NCCNc5cccc6c5C(=O)N(C5CCC(=O)NC5=O)C6=O)c4)nc3c2)c1` (centres undefined) are 1 nM and 1 nM.
Take `COc1cc(OC)cc(N(CCNC(C)C)c2ccc3ncc(-c4cnn(CCOCCOCCOCCOCC(=O)NCCNc5cccc6c5C(=O)N(C5CCC(=O)NC5=O)C6=O)c4)nc3c2)c1` (centres undefined): the IC50 amounted to 10 nM in the assay on SNU-16 [1] and 158 nM in assay [2].
Consider `COc1cc(OC)cc(N(CCNC(C)C)c2ccc3ncc(-c4cnn(C)c4)nc3c2)c1` [ERDAFITINIB], for which the IC50 in the assay on SNU-16 [1] was determined as 1 nM; in assay [2] it was 4 nM. Further, the inhibition in vivo at 20 mg/kg in the assay on SNU-16 [3] amounted to 104%. The viability at 1 µM in the assay on SNU-16 [4] was 47.8%; in the assay “cells [5]”, 69.1%. The viability at 0.5 µM in “cells [6]” was determined as 70.7%; in the assay with SNU-16 [7], 49.9%.
On to `COc1cc(OC)cc(N(CCNC(C)C)c2ccc3ncc(-c4cnn(CCC(=O)NCC(=O)NCCNc5cccc6c5C(=O)N(C5CCC(=O)NC5=O)C6=O)c4)nc3c2)c1` (centres undefined), for which the figures for the IC50 (in the assay on SNU-16 [1]; in assay [2]) were 150 nM and 457 nM, respectively.
For `COc1cc(OC)cc(N(CCNC(C)C)c2ccc3ncc(-c4cnn(CCCCCCCCCC(=O)NCCNc5cccc6c5C(=O)N(C5CCC(=O)NC5=O)C6=O)c4)nc3c2)c1` (centres undefined), in that order: below 0.17 nM and 2 nM.
`COc1cc(OC)cc(N(CCNC(C)C)c2ccc3ncc(-c4cnn(CC(=O)NCC(=O)NCCNc5cccc6c5C(=O)N(C5CCC(=O)NC5=O)C6=O)c4)nc3c2)c1` (centres undefined): the values for the IC50 (in the assay on SNU-16 [1]; in assay [2]) were 65 nM and 523 nM, respectively.
